Measured values taken from ChEMBL document CHEMBL1201862, “PubChem BioAssay data set” (2004).
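Where inhibition never reached the appropriate level, the endpoint shown equals the highest concentration tested. Otherwise, values were interpolated linearly from a five-concentration, 48-hour dose response in 96-well plates. Abbreviation: GI50, concentration required for 50% inhibition of growth.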 Activity calls are given as the source filed them. Rule as the data show it: active = GI50 up to about 1.1 µM and inactive = higher.

Legend:
Assay in all cases: NCI-60 cell line screen, 48 h
786-0 = system: 786-0
A498 = system: A498
A549 = system: A549
ACHN = system: ACHN
CCRF-CEM = system: CCRF-CEM
COLO 205 = system: COLO 205
DLD-1 = system: DLD-1
DMS-114 = system: DMS-114
EKVX = system: EKVX
HCC 2998 = system: HCC 2998
HCT-116 = system: HCT-116
HCT-15 = system: HCT-15
HL-60 = system: HL-60
HOP-62 = system: HOP-62
HT-29 = system: HT-29
IGROV-1 = system: IGROV-1
K562 = system: K562
KM-20L2 = system: KM-20L2
KM12 = system: KM12
LXFL 529 = system: LXFL 529
M14 = system: M14
M19-MEL = system: M19-MEL
MOLT-4 = system: MOLT-4
Malme-3M = system: Malme-3M
NCI-H226 = system: NCI-H226
NCI-H23 = system: NCI-H23
NCI-H460 = system: NCI-H460
NCI-H522 = system: NCI-H522
OVCAR-3 = system: OVCAR-3
OVCAR-4 = system: OVCAR-4
OVCAR-5 = system: OVCAR-5
OVCAR-8 = system: OVCAR-8
RPMI-8226 = system: RPMI-8226
RXF 393 = system: RXF 393
RXF 631 = system: RXF 631
SF-268 = system: SF-268
SF-295 = system: SF-295
SF-539 = system: SF-539
SK-MEL-28 = system: SK-MEL-28
SK-MEL-2 = system: SK-MEL-2
SK-OV-3 = system: SK-OV-3
SN12C = system: SN12C
SNB-19 = system: SNB-19
SNB-75 = system: SNB-75
SNB-78 = system: SNB-78
SR = system: SR
SW-620 = system: SW-620
TK-10 = system: TK-10
U-251 = system: U-251
UACC-257 = system: UACC-257
UACC-62 = system: UACC-62
UO-31 = system: UO-31
CAKI-1 = system: CAKI-1
DMS-273 = system: DMS-273
HOP-92 = system: HOP-92
LOX IMVI = system: LOX IMVI

Measured: GI50

O=C(CC1(O)C(=O)Nc2ccc(Br)cc21)c1ccc(Cl)cc1Cl (configuration not stated)
69 µM: HCT-15
inactive: 786-0 87.1 µM | A498 > 100 µM | A549 92 µM | ACHN 60.1 µM | CCRF-CEM 20.2 µM | COLO 205 65.5 µM | DLD-1 47.1 µM | DMS-114 20.9 µM | EKVX > 100 µM | HCC 2998 91.8 µM | HCT-116 31.8 µM | HL-60 19.1 µM | HOP-62 83.6 µM | HT-29 38.3 µM | IGROV-1 51.4 µM | K562 39.6 µM | KM-20L2 > 100 µM | KM12 52.6 µM | LXFL 529 32.4 µM | M14 34.8 µM | M19-MEL 14.9 µM | MOLT-4 26.3 µM | Malme-3M 63.7 µM | NCI-H226 39.4 µM | NCI-H23 53.2 µM | NCI-H460 49.8 µM | NCI-H522 25.1 µM | OVCAR-3 34.9 µM | OVCAR-4 36.1 µM | OVCAR-5 > 100 µM | OVCAR-8 47.9 µM | RPMI-8226 22.1 µM | RXF 393 91.6 µM | RXF 631 43.9 µM | SF-268 50.1 µM | SF-295 64.7 µM | SF-539 45.5 µM | SK-MEL-28 44 µM | SK-MEL-2 31.7 µM | SK-OV-3 79.1 µM | SN12C 35.6 µM | SNB-19 > 100 µM | SNB-75 38 µM | SNB-78 37.8 µM | SR 23.7 µM | SW-620 37.1 µM | TK-10 56.2 µM | U-251 49.2 µM | UACC-257 30.9 µM | UACC-62 17.2 µM | UO-31 > 100 µM

O=C1OC(O)C(Oc2ccc(Cl)cc2)=C1Cl (configuration not stated)
inactive: 786-0 > 100 µM | A498 > 100 µM | A549 > 100 µM | ACHN > 100 µM | CAKI-1 > 100 µM | CCRF-CEM > 100 µM | COLO 205 > 100 µM | DLD-1 > 100 µM | DMS-114 39.1 µM | DMS-273 > 100 µM | EKVX > 100 µM | HCC 2998 > 100 µM | HCT-116 > 100 µM | HL-60 > 100 µM | HOP-62 > 100 µM | HOP-92 > 100 µM | HT-29 > 100 µM | IGROV-1 > 100 µM | K562 > 100 µM | KM-20L2 > 100 µM | KM12 > 100 µM | LOX IMVI > 100 µM | LXFL 529 > 100 µM | M14 > 100 µM | M19-MEL > 100 µM | MOLT-4 > 100 µM | Malme-3M > 100 µM | NCI-H226 > 100 µM | NCI-H23 > 100 µM | NCI-H460 > 100 µM | NCI-H522 > 100 µM | OVCAR-3 > 100 µM | OVCAR-4 > 100 µM | OVCAR-5 > 100 µM | OVCAR-8 > 100 µM | RPMI-8226 > 100 µM | RXF 393 > 100 µM | RXF 631 > 100 µM | SF-268 > 100 µM | SF-295 > 100 µM | SF-539 > 100 µM | SK-MEL-28 > 100 µM | SK-MEL-2 > 100 µM | SK-OV-3 > 100 µM | SN12C > 100 µM | SNB-19 > 100 µM | SNB-75 > 100 µM | SNB-78 > 100 µM | SW-620 > 100 µM | TK-10 > 100 µM | U-251 > 100 µM | UACC-257 > 100 µM | UACC-62 > 100 µM | UO-31 > 100 µM
> 100 µM: HCT-15
